Target: T1, human vasopressin V1a receptor subtype (Homo sapiens, UniProt P37288)
T1 construct: host or cells: CHO cells (pZeoSV vector for the Thibonnier line)
Assay: Vasopressin binding in Chinese Hamster Ovary cell membranes expressing human vasopressin V1a subtype receptors
Conditions: 100 nM, CHO cell membranes, [3H]Manning ligand, values without parentheses
Method in brief: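 Displacement of [3H]Manning ligand (8 nM working solution) from human V1a receptors in CHO cell membranes, 25–50 μg protein per well. Incubation ran 60 min at room temperature in 50 mM Tris-HCl pH 7.4 with protease inhibitors, followed by filtration and scintillation counting. Results are given as IC50 or percent inhibition.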

T1 sequence (P37288 whole entry): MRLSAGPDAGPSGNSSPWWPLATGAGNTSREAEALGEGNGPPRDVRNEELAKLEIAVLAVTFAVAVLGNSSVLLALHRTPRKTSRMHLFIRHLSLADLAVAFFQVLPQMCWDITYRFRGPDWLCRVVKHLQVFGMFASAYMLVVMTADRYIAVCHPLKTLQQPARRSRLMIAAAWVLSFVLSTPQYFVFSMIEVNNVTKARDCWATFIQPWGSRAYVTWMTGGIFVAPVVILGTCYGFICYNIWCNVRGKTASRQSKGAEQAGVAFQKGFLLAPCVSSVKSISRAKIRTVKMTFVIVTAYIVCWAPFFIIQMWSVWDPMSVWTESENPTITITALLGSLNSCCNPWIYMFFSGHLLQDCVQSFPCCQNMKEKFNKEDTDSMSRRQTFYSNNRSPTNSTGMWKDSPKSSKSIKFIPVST

SMILES | inhibition at 0.1 µM [%] | V1a % inhibition @ 100 nM (0.1 µM) [%]
Cc1ccccc1-c1ccc(C(=O)N2Cc3ccc(C(=O)N4CCN(CCCN(C)C)CC4)n3Cc3ccccc32)cc1C [Example 247, {4-[3-(Dimethylamino)propyl]-1-piperazinyl}{10-[(2,2′-dimethyl[1,1′-biphenyl]-4-yl)carbonyl]-10,11-dihydro-5H-pyrrolo[2,1-c][1,4]benzodiazepin-3-yl}methanone] | 62 | –
COc1ccccc1-c1ccc(C(=O)N2Cc3ccc(C(=O)N[C@@H]4CN5CCC4CC5)n3Cc3ccccc32)cc1OC [Example 300, N-[(3S)-1-Azabicyclo[2.2.2]oct-3-yl]-10-[(2,2′-dimethoxy[1,1′-biphenyl]-4-yl)carbonyl]-10,11-dihydro-5H-pyrrolo[2,1-c][1,4]benzodiazepine-3-carboxamide] | -2 | –
COc1ccccc1-c1ccc(C(=O)N2Cc3ccc(C(=O)N[C@@H]4CN5CCC4CC5)n3Cc3ccccc32)cc1C [Example 295, N-[(3S)-1-Azabicyclo[2.2.2]oct-3-yl]-10-[(2′-methoxy-2-methyl[1,1′-biphenyl]-4-yl)carbonyl]-10,11-dihydro-5H-pyrrolo[2,1-c][1,4]benzodiazepine-3-carboxamide] | 6 | –
COc1cccc(-c2ccc(C(=O)N3Cc4ccc(C(=O)N5CCN(CCCN(C)C)CC5)n4Cc4ccccc43)cc2C)c1 [Example 248, {4-[3-(Dimethylamino)propyl]-1-piperazinyl}{10-[(3′-methoxy-2-methyl[1,1′-biphenyl]-4-yl)carbonyl]-10,11-dihydro-5H-pyrrolo[2,1-c][1,4]benzodiazepin-3-yl}methanone] | 17 | –
CN(C)CCCN1CCN(C(=O)c2ccc3n2Cc2ccccc2N(C(=O)c2ccc(-c4cccc5ccccc45)cc2Cl)C3)CC1 [Example 256, {10-[2-Chloro-4-(1-naphthyl)benzoyl]-10,11-dihydro-5H-pyrrolo[2,1-c][1,4]benzodiazepin-3-yl}{4-[3-(dimethylamino)propyl]-1-piperazinyl}methanone] | 7 | –
CC(C)N1CCN(C(=O)c2ccc3n2Cc2ccccc2N(C(=O)c2ccc(-c4cccc5ccccc45)cc2Cl)C3)CC1 [Example 243, {10-[2-Chloro-4-(1-naphthyl)benzoyl]-10,11-dihydro-5H-pyrrolo[2,1-c][1,4]benzodiazepin-3-yl}(4-isopropyl-1-piperazinyl)methanone] | 5 | –
COc1ccccc1-c1ccc(C(=O)N2Cc3ccc(C(=O)NCCCN(C)C)n3Cc3ccccc32)cc1C [Example 72, N-[3-(Dimethylamino)propyl]-10-[(2′-methoxy-2-methyl[1,1′-biphenyl]-4-yl)carbonyl]-10,11-dihydro-5H-pyrrolo[2,1-c][1,4]benzodiazepine-3-carboxamide] | 8 | –
Cc1ccccc1-c1ccc(C(=O)N2Cc3ccc(C(=O)N4CCCN(C)CC4)n3Cc3ccccc32)cc1C [Example 63, {10-[(2,2′-Dimethyl[1,1′-biphenyl]-4-yl)carbonyl]-10,11-dihydro-5H-pyrrolo[2,1-c][1,4]benzodiazepin-3-yl}(4-methyl-1,4-diazepan-1-yl)methanone] | 57 | –
COc1cccc(-c2ccc(C(=O)N3Cc4ccc(C(=O)N5CCN(C)CC5)n4Cc4ccccc43)cc2OC)c1 [Example 57, {10-[(2,3′-Dimethoxy[1,1′-biphenyl]-4-yl)carbonyl]-10,11-dihydro-5H-pyrrolo[2,1-c][1,4]benzodiazepin-3-yl}(4-methyl-1-piperazinyl)methanone] | 15 | –
COc1cc(C(=O)N2Cc3ccc(C(=O)N4CCN(C)CC4)n3Cc3ccccc32)ccc1-c1ccccc1C [Example 53, {10-[(2-Methoxy-2′-methyl[1,1′-biphenyl]-4-yl)carbonyl]-10,11-dihydro-5H-pyrrolo[2,1-c][1,4]benzodiazepin-3-yl}(4-methyl-1-piperazinyl)methanone] | 38 | –
COc1cccc(-c2cc(OC)c(C(=O)N3Cc4ccc(C(=O)N5CCCN(C)CC5)n4Cc4ccccc43)cc2Cl)c1 [Example 67, {10-[(6-Chloro-3,3′-dimethoxy[1,1′-biphenyl]-4-yl)carbonyl]-10,11-dihydro-5H-pyrrolo[2,1-c][1,4]benzodiazepin-3-yl}(4-methyl-1,4-diazepan-1-yl)methanone] | -4 | –
COc1cc(C(=O)N2Cc3ccc(C(=O)N4CCCN(C)CC4)n3Cc3ccccc32)ccc1-c1ccccc1C [Example 66, {10-[(2-Methoxy-2′-methyl[1,1′-biphenyl]-4-yl)carbonyl]-10,11-dihydro-5H-pyrrolo[2,1-c][1,4]benzodiazepin-3-yl}(4-methyl-1,4-diazepan-1-yl)methanone] | 52 | –

More lines, now with the values ahead:

inhibition at 0.1 µM [%] | V1a % inhibition @ 100 nM (0.1 µM) [%] | SMILES
-4 | – | COc1ccccc1-c1ccc(C(=O)N2Cc3ccc(C(=O)N[C@@H](CCCCNC(=O)OC(C)(C)C)C(N)=O)n3Cc3ccccc32)cc1OC [Example 303, tert-Butyl (5S)-6-amino-5-[({10-[(2,2′-dimethoxy[1,1′-biphenyl]-4-yl)carbonyl]-10,11-dihydro-5H-pyrrolo[2,1-c][1,4]benzodiazepin-3-yl}carbonyl)amino]-6-oxohexylcarbamate]
7 | – | COc1cc(C(=O)N2Cc3ccc(C(=O)NCCC4CCCN4C)n3Cc3ccccc32)ccc1-n1c(C)ccc1C (stereo not shown) [Example 315, 10-[4-(2,5-Dimethyl-1H-pyrrol-1-yl)-3-methoxybenzoyl]-N-[2-(1-methyl-2-pyrrolidinyl)ethyl]-10,11-dihydro-5H-pyrrolo[2,1-c][1,4]benzodiazepine-3-carboxamide]
5 | – | C=CCN1CCN(C(=O)c2ccc3n2Cc2ccccc2N(C(=O)c2ccc(-n4c(C)ccc4C)c(OC)c2)C3)CC1 [Example 318, (4-Allyl-1-piperazinyl){10-[4-(2,5-dimethyl-1H-pyrrol-1-yl)-3-methoxybenzoyl]-10,11-dihydro-5H-pyrrolo[2,1-c][1,4]benzodiazepin-3-yl}methanone]
0 | – | COc1cc(C(=O)N2Cc3ccc(C(=O)N4CCN(C)CC4)n3Cc3ccccc32)ccc1-n1c(C)ccc1C [Example 306, {10-[4-(2,5-Dimethyl-1H-pyrrol-1-yl)-3-methoxybenzoyl]-10,11-dihydro-5H-pyrrolo[2,1-c][1,4]benzodiazepin-3-yl}(4-methyl-1-piperazinyl)methanone]
2 | – | Cc1cc(C(=O)N2Cc3cccn3Cc3ncccc32)ccc1-c1ccccc1C(F)(F)F [Example 323F, (2-Methyl-2′-trifluoromethyl-[1,1′-biphenyl]-4-yl)-(4H,10H-3a,5,9-triaza-benzo[f]azulen-9-yl)-methanone]
2 | – | COc1ccccc1-c1ccc(C(=O)N2Cc3ccc(C(=O)n4ccnc4)n3Cc3ccccc32)cc1OC [Example 293, {10-[(2,2′-Dimethoxy[1,1′-biphenyl]-4-yl)carbonyl]-10,11-dihydro-5H-pyrrolo[2,1-c][1,4]benzodiazepin-3-yl}(1H-imidazol-1-yl)methanone]
-7 | – | COc1cc(-c2ccccc2C)c(Cl)cc1C(=O)N1Cc2ccc(C(=O)N[C@@H](CCCCNC(=O)OC(C)(C)C)C(N)=O)n2Cc2ccccc21 [Example 304, tert-Butyl (5S)-6-amino-5-[({10-[(6-chloro-3-methoxy-2′-methyl[1,1′-biphenyl]-4-yl)carbonyl]-10,11-dihydro-5H-pyrrolo[2,1-c][1,4]benzodiazepin-3-yl}carbonyl)amino]-6-oxohexylcarbamate]
4 | – | COc1cc(C(=O)N2Cc3ccc(C(=O)N4CCN(CCCN(C)C)CC4)n3Cc3ccccc32)ccc1-n1c(C)ccc1C [Example 320, {4-[3-(Dimethylamino)propyl]-1-piperazinyl}{10-[4-(2,5-dimethyl-1H-pyrrol-1-yl)-3-methoxybenzoyl]-10,11-dihydro-5H-pyrrolo[2,1-c][1,4]benzodiazepin-3-yl}methanone]
-3 | – | Cc1cc(C(=O)N2Cc3ccc(C(=O)n4ccnc4)n3Cc3ccccc32)ccc1-c1ccccc1C(F)(F)F [Example 294, 1H-Imidazol-1-yl(10-{[2-methyl-2′-(trifluoromethyl)[1,1′-biphenyl]-4-yl]carbonyl}-10,11-dihydro-5H-pyrrolo[2,1-c][1,4]benzodiazepin-3-yl)methanone]
6 | – | COc1cc(C(=O)N2Cc3ccc(C(=O)NCCN4CCCCC4)n3Cc3ccccc32)ccc1-n1c(C)ccc1C [Example 314, 10-[4-(2,5-Dimethyl-1H-pyrrol-1-yl)-3-methoxybenzoyl]-N-[2-(1-piperidinyl)ethyl]-10,11-dihydro-5H-pyrrolo[2,1-c][1,4]benzodiazepine-3-carboxamide]
38 | – | COc1ccccc1-c1ccc(C(=O)N2Cc3ccc(C(=O)N[C@@H](Cc4c[nH]cn4)C(N)=O)n3Cc3ccccc32)cc1 [Example 285, N-[(1S)-2-Amino-1-(1H-imidazol-4-ylmethyl)-2-oxoethyl]-10-[(2′-methoxy[1,1′-biphenyl]-4-yl)carbonyl]-10,11-dihydro-5H-pyrrolo[2,1-c][1,4]benzodiazepine-3-carboxamide]
– | 10 | Cc1cc(C(=O)N2Cc3ccc(C(=O)N4CCN(CCCN(C)C)CC4)n3Cc3ccccc32)ccc1-c1ccccc1C(F)(F)F [Example 257, {10-[(2-Methyl-2′-trifluoromethyl-[1,1′-biphenyl]-4-yl)carbonyl]-10,11-dihydro-5H-pyrrolo[2,1-c][1,4]benzodiazepin-3-yl}{4-[3-(dimethylamino)propyl]-1-piperazinyl}-methanone]
6 | – | COc1cccc(-c2ccc(C(=O)N3Cc4ccc(C(=O)n5ccnc5)n4Cc4ccccc43)cc2C)c1 [Example 289, 1H-Imidazol-1-yl-{10-[(3′-methoxy-2-methyl[1,1′-biphenyl]-4-yl)carbonyl]-10,11-dihydro-5H-pyrrolo[2,1-c][1,4]benzodiazepin-3-yl}methanone]
